We go through 31 compounds from patent US5254569A, “(Amidomethyl)nitrogen heterocyclic analgesics” (The Du Pont Merck Pharmaceutical Company, priority 1991, dated 1993).

Each structure is given as a SMILES string. Structures can show the parent of a compound that is named as a salt. Where two headings read alike, the source gives them in different places. A value given as a limit tells only on which side of the number the result lay.

A short description of series [1]: phenylquinone writhing test (PQW), analgesic activity in mice. The format is in vivo, male white mice (CFl). As to conditions: for ED50: Mus musculus. A general note: An intraperitoneal irritant provokes the stretching counted in writhing tests.
Another series addresses mu opioid receptor. The experiment in a line: opioid receptor binding, mu ([3H]naloxone). The arrangement: species or system guinea pig (method, b1124); rat (Table 4 title).
The target of another series is T1, kappa opioid receptor (Cavia porcellus, UniProt P41144).
T1 construct: Whole brains were homogenized (20 sec) in 10 vol (wt/vol) of ice-cold 0.34 M sucrose; tissue Charles River (animals); host or cells: guinea pig whole-brain membranes
The experiment in a line: opioid receptor binding, kappa ((-)-[3H]ethylketocycloazocine). Set-up: species or system guinea pig (method, b1124); rat (Table 4 title).

The conditions of series [2]: mouse, in vivo; cited from earlier work.
The mark [3] stands for this setting: 0.5 nM [3H]naloxone, brain membranes, apparent Ki.

T1 sequence (P41144 whole entry): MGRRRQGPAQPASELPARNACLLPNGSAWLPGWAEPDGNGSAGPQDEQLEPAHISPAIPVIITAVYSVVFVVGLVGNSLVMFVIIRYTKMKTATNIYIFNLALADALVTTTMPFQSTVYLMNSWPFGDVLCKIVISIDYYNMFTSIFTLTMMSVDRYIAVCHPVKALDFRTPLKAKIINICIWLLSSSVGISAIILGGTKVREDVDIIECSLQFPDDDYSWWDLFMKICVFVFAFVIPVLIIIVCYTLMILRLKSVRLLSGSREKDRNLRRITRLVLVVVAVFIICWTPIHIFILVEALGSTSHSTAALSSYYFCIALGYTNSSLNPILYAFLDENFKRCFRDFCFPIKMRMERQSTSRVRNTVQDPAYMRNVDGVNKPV

As for `COc1cccc([C@@H]([C@@H]2CCCCN2C)N(C)C(=O)Cc2ccc(Cl)c(Cl)c2)c1` [Example 120], the ED50 – broadly, the dose that gives a 50% effect, or the effect in half of the subjects – in series [1] (po) is 19 mg/kg; in series [1] (sc), 1.6 mg/kg. Moreover, the Ki on mu opioid receptor was found to be 633 nM.
As for `CN1CCCC[C@H]1[C@H](c1ccccc1)N(C)C(=O)Cc1cccc2occc12` [Example 114], the values for the ED50 in series [1] (po) and in series [1] (sc) were 8.1 mg/kg and 0.57 mg/kg, respectively. This compound returned a Ki on mu opioid receptor of 250 nM.
As for `CN1CCCC[C@H]1[C@H](c1ccccc1)N(C)C(=O)COc1ccc(Cl)c(Cl)c1` [Example 110], the ED50 in series [1] (po) stood at 0.89 mg/kg; in series [1] (sc) it was 0.078 mg/kg. Also, on mu opioid receptor (setting [3]), the Ki worked out at 8 nM.
As to `CCN(C(=O)Cc1ccc(Cl)c(Cl)c1)C(c1ccccc1)C1CCCCN1C` (stereo not shown) [Example 11], the 50% effect level in series [1] (po) (ED50) was put at a dose of 38 mg/kg. In series [1] (s.c.), the “MOUSE PQW ED50” value is listed as 30.0 mg/kg. This compound also displayed a Ki at mu opioid receptor of 660 nM.
As to `COc1cccc([C@@H]([C@@H]2CCCCN2C)N(C)C(=O)COc2ccc(Cl)c(Cl)c2)c1` [Example 140], the values for the ED50 in series [1] (po) and in series [1] (sc) were 5.2 mg/kg and 0.29 mg/kg, respectively. In addition, the Ki at mu opioid receptor is 104 nM.
On to `CN1CCCC[C@H]1[C@H](c1cccc(O)c1)N(C)C(=O)COc1ccc(Cl)c(Cl)c1` [Example 144], for which the ED50 in series [1] (po) is 16 mg/kg; in series [1] (sc), 4.2 mg/kg. Besides, the Ki at mu opioid receptor (setting [3]) turned out to be 27 nM.
As for `CN(C(=O)Cc1ccc(Cl)c(Cl)c1)[C@@H](c1ccccc1)[C@@H]1CCCCN1CC1CC1` [Example 179], the ED50 is 10 mg/kg in series [1] (po) and > 81 mg/kg in series [1] (sc). Moreover, the Ki turned out to be 604 nM at mu opioid receptor (setting [3]) and 397 nM at kappa opioid receptor.
Take `CN1CCCC[C@@H]1[C@@H](c1ccccc1)N(C)C(=O)Cc1ccc(Cl)c(Cl)c1` [Example 107]: the ED50 in series [1] (po) is 30 mg/kg; in series [1] (sc), 13 mg/kg. The compound also returned a Ki on mu opioid receptor of 253 nM.
As to `CN1CCCCC1C(c1ccccc1)N(C)C(=O)Cc1c(F)c(F)c(F)c(F)c1F` (stereo not shown) [Example 10], the ED50 in series [1] (po) was found to be 47 mg/kg; in series [1] (sc) it was 16 mg/kg. Further, the Ki on mu opioid receptor stood at 3200 nM.
`CN1CCCCC1C(Cc1ccccc1)N(C)C(=O)Cc1ccc(Cl)c(Cl)c1` (stereo not shown) [Example 47]: the ED50 in series [1] (po) and in series [1] (sc) was > 81 mg/kg in each case. Further, the Ki on mu opioid receptor (setting [3]) was 2560 nM; on kappa opioid receptor it was 3990 nM.
For `CN1CCCC[C@@H]1[C@@H](c1ccccc1)N(C)C(=O)COc1ccc(Cl)c(Cl)c1` [Example 111], the ED50 was 19 mg/kg in series [1] (po) and 1.3 mg/kg in series [1] (sc). The Ki at mu opioid receptor came to 195 nM.
In the case of `CN1CCCCC1C(c1ccc(O)cc1)N(C)C(=O)Cc1ccc(Cl)c(Cl)c1` (stereo not shown) [Example 8], the ED50 in series [1] (po) and in series [1] (sc) was > 81 mg/kg each time. Further, the Ki on mu opioid receptor (setting [3]) came out at 11400 nM; on kappa opioid receptor it was 2590 nM.
As to `CN1CCCC[C@H]1[C@H](c1ccc(F)cc1)N(C)C(=O)COc1ccc(Cl)c(Cl)c1` [Example 136], the ED50 in series [1] (po) was 1.7 mg/kg; in series [1] (sc), 0.24 mg/kg. The Ki on mu opioid receptor (setting [3]) was found to be 54 nM.
As for `CN1CCCCC1C(c1ccccc1)N(C)C(=O)COc1ccc(Cl)c(Cl)c1` (stereo not shown) [Example 14], the ED50 in series [1] (po) amounted to 1.2 mg/kg; in series [1] (sc) it was 0.11 mg/kg. Moreover, the Ki on mu opioid receptor (setting [3]) is 58 nM.
In the case of `CN1CCCC[C@H]1[C@@H](c1ccccc1)N(C)C(=O)Cc1ccc(Cl)c(Cl)c1` [Example 109], the ED50 in series [1] (po) and in series [1] (sc) was > 81 mg/kg throughout. This compound also had a Ki at mu opioid receptor of 3860 nM.
`CN1CCCC[C@H]1[C@@H](c1ccccc1)N(C)C(=O)COc1ccc(Cl)c(Cl)c1` [Example 113]: the results for the ED50 in series [1] (po) and in series [1] (sc) were > 81 mg/kg and 67 mg/kg, respectively. The Ki on mu opioid receptor was > 10000 nM.
On to `COc1ccc(C(C2CCCCN2C)N(C)C(=O)Cc2ccc(Cl)c(Cl)c2)cc1` (stereo not shown) [Example 7, Benzeneacetamide, 3,4-dichloro-N-((1-(4-methoxyphenyl)-1-(1-methyl-2-piperidinylmethyl))-N-methyl-, hydrochloride], for which the 50% effective dose (ED50) in series [1] (po) and in series [1] (sc) was > 81 mg/kg throughout. In addition, the Ki on mu opioid receptor (setting [3]) worked out at 5670 nM; at kappa opioid receptor, 4590 nM.
Regarding `CCN(C(=O)Cc1ccc(Cl)c(Cl)c1)C(c1ccccc1)C1CCCCN1C` (stereo not shown) [Example 12], the “MOUSE PQW ED50” value in series [1] (p.o.) came to 24. mg/kg; in series [1] (s.c.), 1.7 mg/kg. The Ki at mu opioid receptor turned out to be 3320 nM.
Turning to `CN1CCCCC1C(c1cccc(O)c1)N(C)C(=O)Cc1ccc(Cl)c(Cl)c1` (stereo not shown) [Example 6, benzeneacetamide,3,4-dichloro-N-[1-(3-hydroxyphenyl)-1-(1-methyl-2-piperidinyl)methyl]-N-methyl-, hydrobromide], the ED50 in series [1] (po) was > 81 mg/kg; in series [1] (sc) it was 18 mg/kg. Further, on mu opioid receptor, the Ki was determined as 438 nM.
As to `CN1CCCC[C@H]1[C@H](c1ccccc1)N(C)C(=O)Cc1ccc(Cl)c(Cl)c1` [Example 106, (+)-[2S-(R*,R*)]-(3,4-dichlorophenyl)-N-methyl-N-[1-(1-methyl-2-piperidinyl)phenylmethyl]acetamide hydrochloride], the ED50 in series [1] (po) turned out to be 8.1 mg/kg; in series [1] (sc), 0.37 mg/kg. Moreover, the Ki at mu opioid receptor was 414 nM.
In the case of `CN1CCCC[C@H]1[C@H](c1cccc(O)c1)N(C)C(=O)Cc1ccc(Cl)c(Cl)c1` [Example 122], the results for the ED50 in series [1] (po) and in series [1] (sc) were 47 mg/kg and 36 mg/kg, respectively. The Ki at mu opioid receptor amounted to 209 nM.
The corresponding values for `C=CCN1CCCC[C@H]1[C@H](c1ccccc1)N(C)C(=O)Cc1ccc(Cl)c(Cl)c1` [Example 180] are 24 mg/kg, > 81 mg/kg and 530 nM.
The corresponding values for `CN1CCCC[C@H]1[C@H](c1ccc(F)cc1)N(C)C(=O)Cc1ccc(Cl)c(Cl)c1` [Example 118] are 19 mg/kg, 1.7 mg/kg and 1060 nM.
`CN(C(=O)Cc1ccc(Cl)c(Cl)c1)C(c1ccccc1)C1CCCCN1CC1CC1` (stereo not shown) [Example 3]: the ED50 in series [1] (po) was 47 mg/kg; in series [1] (sc) it was > 81 mg/kg. The Ki worked out at 957 nM on mu opioid receptor (setting [3]) and 530 nM on kappa opioid receptor.
With `CN1CCCCC1C(c1ccccc1)N(C)C(=O)Cc1ccc(Cl)c(Cl)c1` (stereo not shown) [Example 9], the “MOUSE PQW ED50” value in series [1] (p.o.) stood at 16. mg/kg; in series [1] (s.c.) it was 0.72 mg/kg. Moreover, on mu opioid receptor, the Ki was 322 nM.
For the compound `CN1CCCC[C@@H]1[C@H](c1ccccc1)N(C)C(=O)COc1ccc(Cl)c(Cl)c1` [Example 112], the ED50 in series [1] (po) was > 81 mg/kg; in series [1] (sc) it was 12 mg/kg. The compound also showed a Ki on mu opioid receptor of 4620 nM.
`CN1CCCCC1C(c1ccccc1)N(C)C(=O)Cc1ccc(Cl)c(Cl)c1` (stereo not shown) [Example 2, benzeneacetamide, 3,4-dichloro-N-methyl-N-[1-(1-methyl-2-piperidinyl)phenyl-methyl], hydrochloride] registered an ED50 in series [1] (po) of 10 mg/kg. Besides, the “MOUSE PQW ED50” value in series [1] (s.c., hydrochloride) turned out to be 1.7 mg/kg. Moreover, the Ki at mu opioid receptor (hydrochloride) is 270 nM.
As to `CC(C1CCCCN1C)N(C)C(=O)Cc1ccc(Cl)c(Cl)c1` (stereo not shown) [Example 4, benzeneacetamide,3,4-dichloro-N-methyl-N-[1-(1-methyl-2-piperidinyl)ethyl]-, hydrochloride], the results for the ED50 in series [1] (po) and in series [1] (sc) were > 81 mg/kg and 67 mg/kg, respectively. Further, the values for the Ki on mu opioid receptor (setting [3]) and on kappa opioid receptor were 28500 nM and 1280 nM, respectively.
With `COc1cccc(C(C2CCCCN2C)N(C)C(=O)Cc2ccc(Cl)c(Cl)c2)c1` (stereo not shown) [Example 5, benzeneacetamide,3,4-dichloro-N-[1-(3-methoxyphenyl)-1-(1-methyl-2-piperidinyl)methyl]-N-methyl-, hydrochloride], the ED50 amounted to 38 mg/kg in series [1] (po) and 1.3 mg/kg in series [1] (sc). Also, the Ki at mu opioid receptor worked out at 3470 nM.
Take `CN1CC[C@]23c4c5ccc(O)c4O[C@H]2[C@@H](O)C=C[C@H]3[C@H]1C5` [Morphine]: the sedation in mice result in series [2] is listed as “do not produce sedation”.
As to `CN1CCCCC1C(c1ccccc1)N(C)C(=O)Cc1ccc(Cl)cc1Cl` (stereo not shown) [Example 13], the ED50 stood at 24 mg/kg in series [1] (po) and 8.1 mg/kg in series [1] (sc). The Ki at mu opioid receptor was 625 nM.
